Measured values published in patent publication US20140357713A1, “ANTIMICROBIAL COMPOUNDS AND METHODS OF USE” (NexMed Holdings, Inc., priority 2012, published 2014).
Counter-ions that a name gives are not always drawn.

Experiments:
Test in all cases: MIC assay with different strains, Example 35
Type in all cases: cell-based
[1] = test system: Corynebacterium jeikeium (ATCC 43734)
Method: (§1) The minimum inhibitory concentration (MIC) is used to determine the lowest concentration of a test product claiming antimicrobial effects that will inhibit growth of a microorganism. Each microbial suspension was adjusted approximately 10^7 to 10^8 colony forming units (CFU) per mL and labeled as the stock suspension. The stock suspension was further diluted to 1:200 in Mueller Hinton broth to obtain a test sample having a concentration of […]. The test sample was then tested for MIC as described in M202.R02. After incubation, each tube was examined for turbidity, which indicated growth or no growth. For the tubes where the product rendered the media turbid, an aliquot of the media was streaked onto agar plates to confirm growth or lack of growth.

[2] = test system: Burkholderia cepacia (ATCC 25416)
Method: as §1

[3] = test system: Streptococcus pneumonia (ATCC 6303)
Method: as §1

[4] = test system: Klebsiella oxytoca (ATCC 43165)
Method: as §1

[5] = test system: Serratia marcescens (ATCC 14756)
Method: as §1

[6] = test system: Enterobacter cloacae (ATCC 13047)
Method: as §1

[7] = test system: Haemophilus influenza (ATCC 19418)
Method: as §1

[8] = test system: Enterococcus faecalis (ATCC 19433)
Method: as §1

[9] = test system: Staphylococcus saprophyticus (ATCC 15305)
Method: as §1

[10] = test system: Acinetobacter iwoffi (ATCC 15309)
Method: as §1

[11] = test system: Klebsiella pneumonia (ATCC 11296)
Method: as §1

[12] = test system: Staphylococcus haemolyticus (ATCC 29970)
Method: as §1

[13] = test system: Staphylococcus aureus (MRSA) (ATCC 33592)
Method: as §1

[14] = test system: Proteus mirabilis (ATCC 7002)
Method: as §1

[15] = test system: Streptococcus pyogenes (ATCC 19615)
Method: as §1

With CCCCCCCCCCCCOC(=O)C(C)N(C)C (stereo not drawn) [Nex-05, Dodecyl 2-(dimethylamino)propanoate hydrochloride] as the compound, how does the MIC ([1]; Example 35) read?
The MIC was 0.625%.

And the Growth/no growth ([1]; Sample Concentration 0.039%)?
The Growth/no growth was “Growth”.

And the Growth/no growth ([1]; Sample Concentration 0.078%)?
The Growth/no growth was “Growth”.

And the Growth/no growth ([1]; Sample Concentration 0.156%)?
The Growth/no growth was “Growth”.

What about the Growth/no growth ([1]; Sample Concentration 0.313%) of the same compound?
The Growth/no growth was “Growth”.

What about the MIC ([2]; Example 35) of the same compound?
The MIC was 2.5%.

And the Growth/no growth ([2]; Sample Concentration 0.039%)?
The Growth/no growth was “Growth”.

What about the Growth/no growth ([2]; Sample Concentration 0.078%) of the same compound?
The Growth/no growth was “Growth”.

And the Growth/no growth ([2]; Sample Concentration 0.156%)?
The Growth/no growth was “Growth”.

What about the Growth/no growth ([2]; Sample Concentration 0.313%) of the same compound?
The Growth/no growth was “Growth”.

And the Growth/no growth ([2]; Sample Concentration 0.625%)?
Its Growth/no growth is “Growth”.

What about the Growth/no growth ([2]; Sample Concentration 1.25%) of the same compound?
The Growth/no growth was “Growth”.

And the MIC ([3]; Example 35)?
The MIC was 0.156%.

What about the Growth/no growth ([3]; Sample Concentration 0.039%) of the same compound?
The Growth/no growth was “Growth”.

What about the Growth/no growth ([3]; Sample Concentration 0.078%) of the same compound?
Its Growth/no growth is “Growth”.

And the MIC ([4]; Example 35)?
The MIC was 1.25%.

And the Growth/no growth ([4]; Sample Concentration 0.039%)?
The Growth/no growth was “Growth”.

And the Growth/no growth ([4]; Sample Concentration 0.078%)?
The Growth/no growth was “Growth”.

What about the Growth/no growth ([4]; Sample Concentration 0.156%) of the same compound?
The Growth/no growth was “Growth”.

What about the Growth/no growth ([4]; Sample Concentration 0.313%) of the same compound?
The Growth/no growth was “Growth”.

And the Growth/no growth ([4]; Sample Concentration 0.625%)?
Its Growth/no growth is “Growth”.

What about the MIC ([5]; Example 35) of the same compound?
The MIC was 2.5%.

What about the Growth/no growth ([5]; Sample Concentration 0.039%) of the same compound?
The Growth/no growth was “Growth”.

What about the Growth/no growth ([5]; Sample Concentration 0.078%) of the same compound?
Its Growth/no growth is “Growth”.

What about the Growth/no growth ([5]; Sample Concentration 0.156%) of the same compound?
The Growth/no growth was “Growth”.

What about the Growth/no growth ([5]; Sample Concentration 0.313%) of the same compound?
Its Growth/no growth is “Growth”.

What about the Growth/no growth ([5]; Sample Concentration 0.625%) of the same compound?
The Growth/no growth was “Growth”.

And the Growth/no growth ([5]; Sample Concentration 1.25%)?
The Growth/no growth was “Growth”.

What about the MIC ([6]; Example 35) of the same compound?
The MIC was 0.625%.

What about the Growth/no growth ([6]; Sample Concentration 0.039%) of the same compound?
The Growth/no growth was “Growth”.

What about the Growth/no growth ([6]; Sample Concentration 0.078%) of the same compound?
Its Growth/no growth is “Growth”.

And the Growth/no growth ([6]; Sample Concentration 0.156%)?
Its Growth/no growth is “Growth”.

And the Growth/no growth ([6]; Sample Concentration 0.313%)?
The Growth/no growth was “Growth”.

What about the MIC ([7]; Example 35) of the same compound?
The MIC was 5%.

What about the Growth/no growth ([7]; Sample Concentration 0.039%) of the same compound?
Its Growth/no growth is “Growth”.

And the Growth/no growth ([7]; Sample Concentration 0.078%)?
Its Growth/no growth is “Growth”.

And the Growth/no growth ([7]; Sample Concentration 0.156%)?
Its Growth/no growth is “Growth”.

And the Growth/no growth ([7]; Sample Concentration 0.313%)?
The Growth/no growth was “Growth”.

And the Growth/no growth ([7]; Sample Concentration 0.625%)?
The Growth/no growth was “Growth”.

What about the Growth/no growth ([7]; Sample Concentration 1.25%) of the same compound?
Its Growth/no growth is “Growth”.

What about the Growth/no growth ([7]; Sample Concentration 2.5%) of the same compound?
Its Growth/no growth is “Growth”.

And the MIC ([8]; Example 35)?
Its MIC is 1.25%.

What about the Growth/no growth ([8]; Sample Concentration 0.039%) of the same compound?
Its Growth/no growth is “Growth”.

What about the Growth/no growth ([8]; Sample Concentration 0.078%) of the same compound?
The Growth/no growth was “Growth”.

What about the Growth/no growth ([8]; Sample Concentration 0.156%) of the same compound?
The Growth/no growth was “Growth”.

And the Growth/no growth ([8]; Sample Concentration 0.313%)?
The Growth/no growth was “Growth”.

What about the Growth/no growth ([8]; Sample Concentration 0.625%) of the same compound?
The Growth/no growth was “Growth”.

And the MIC ([9]; Example 35)?
Its MIC is 0.625%.

What about the Growth/no growth ([9]; Sample Concentration 0.039%) of the same compound?
The Growth/no growth was “Growth”.

What about the Growth/no growth ([9]; Sample Concentration 0.078%) of the same compound?
Its Growth/no growth is “Growth”.

And the Growth/no growth ([9]; Sample Concentration 0.156%)?
The Growth/no growth was “Growth”.

What about the Growth/no growth ([9]; Sample Concentration 0.313%) of the same compound?
The Growth/no growth was “Growth”.

What about the MIC ([10]; Example 35) of the same compound?
Its MIC is 0.156%.

And the Growth/no growth ([10]; Sample Concentration 0.039%)?
Its Growth/no growth is “Growth”.

And the Growth/no growth ([10]; Sample Concentration 0.078%)?
Its Growth/no growth is “Growth”.

What about the MIC ([11]; Example 35) of the same compound?
Its MIC is 0.625%.

What about the Growth/no growth ([11]; Sample Concentration 0.039%) of the same compound?
The Growth/no growth was “Growth”.

And the Growth/no growth ([11]; Sample Concentration 0.078%)?
The Growth/no growth was “Growth”.

And the Growth/no growth ([11]; Sample Concentration 0.156%)?
The Growth/no growth was “Growth”.

What about the MIC ([12]; Example 35) of the same compound?
The MIC was 0.313%.

What about the Growth/no growth ([12]; Sample Concentration 0.039%) of the same compound?
Its Growth/no growth is “Growth”.

What about the Growth/no growth ([12]; Sample Concentration 0.078%) of the same compound?
The Growth/no growth was “Growth”.

What about the Growth/no growth ([12]; Sample Concentration 0.156%) of the same compound?
Its Growth/no growth is “Growth”.

What about the MIC ([13]; Example 35) of the same compound?
Its MIC is 0.625%.

And the Growth/no growth ([13]; Sample Concentration 0.039%)?
The Growth/no growth was “Growth”.

And the Growth/no growth ([13]; Sample Concentration 0.078%)?
The Growth/no growth was “Growth”.

And the Growth/no growth ([13]; Sample Concentration 0.156%)?
The Growth/no growth was “Growth”.

What about the Growth/no growth ([13]; Sample Concentration 0.313%) of the same compound?
The Growth/no growth was “Growth”.

And the MIC ([14]; Example 35)?
The MIC was 1.25%.

What about the Growth/no growth ([14]; Sample Concentration 0.039%) of the same compound?
Its Growth/no growth is “Growth”.

What about the Growth/no growth ([14]; Sample Concentration 0.078%) of the same compound?
Its Growth/no growth is “Growth”.

And the Growth/no growth ([14]; Sample Concentration 0.156%)?
The Growth/no growth was “Growth”.

What about the Growth/no growth ([14]; Sample Concentration 0.313%) of the same compound?
Its Growth/no growth is “Growth”.

And the Growth/no growth ([14]; Sample Concentration 0.625%)?
Its Growth/no growth is “Growth”.

What about the MIC ([15]; Example 35) of the same compound?
Its MIC is 0.313%.

What about the Growth/no growth ([15]; Sample Concentration 0.039%) of the same compound?
The Growth/no growth was “Growth”.

What about the Growth/no growth ([15]; Sample Concentration 0.078%) of the same compound?
The Growth/no growth was “Growth”.

And the Growth/no growth ([15]; Sample Concentration 0.156%)?
The Growth/no growth was “Growth”.
